“Also recorded” adds a separate entry of the source. Read-outs that look alike come from different tables or passages of the source.
Experiments:
[1] = tested on: TM4 mouse Sertoli cells; assay: Cell growth and viability (MTT), dose-response of the drugs alone; format: cell-based; conditions: for IC20: read-out: IC20 ± SE; for IC80: read-out: IC80 ± SE
Description: Cells were maintained in standard conditions for 24 h before treatments. […] All azoles were dissolved in DMSO. In an effort to avoid a possible experimental artifact with vehicles, experiments were performed including control groups in which the effect of the drug vehicle alone was tested (vehicle control, vCTR). […] For experiments with N-acetylcysteine (NAC), 24 h after seeding cells were pre-treated for 1 h with the ROS inhibitor (1 mM) and then maintained in co-treatment with azoles for 48 h.
TM4 cells were seeded at a density of 1 × 10^4/cm^2, and cultures incubated at standard conditions in the presence or the absence of azoles to reach final concentrations ranging from 0.078 µM up to 320 µM in culture medium. Cell growth and viability were assessed at 24 and 48 h by Trypan-blue exclusion assay and MTT (3-(4,5-dimethylthiazol-2-yl)-2,5-diphenyl-2H-tetrazolium-bromide) colorimetric method (Sigma-Aldrich, St. Louis, MO, USA), quantifying the metabolic efficiency of living cells.
The Interaction Index (II) was calculated, as previously described, by modifying the Chou and Talalay equation [78]. Specifically, Chou and Talalay’s median-effect method estimates the IC50 and the sigmodicity coefficient m values using linear regression of the linearised dose-response curve.
For a two-drug assay, II is the summation of the ratios of the doses (Dn) of the drugs in combination, and the concentrations of the two drugs alone (IDx,n), to obtain a fraction x of cells affected by drug combinations (Fa). IDx,n is estimated by the following equation:(1) IDx,n=IC50(Fa/1−Fa)^1/mn

[2] = cited from earlier work
[3] = tested on: TM4 cells; assay: Annexin V-FITC / propidium iodide assay of apoptosis and necrosis; format: cell-based, mouse; conditions: for apoptosis induction / cell death: 48 h, annexin V/PI, vs vCTR
Description: Cells were maintained in standard conditions for 24 h before treatments. […] All azoles were dissolved in DMSO. In an effort to avoid a possible experimental artifact with vehicles, experiments were performed including control groups in which the effect of the drug vehicle alone was tested (vehicle control, vCTR). In these experimental conditions, we excluded any negative effects of DMSO that is biocompatible with no biological effect per se. For experiments with N-acetylcysteine (NAC), 24 h after seeding cells were pre-treated for 1 h with the ROS inhibitor (1 mM) and then maintained in co-treatment with azoles for 48 h.
Treated and control cells (vCTR) (1 × 10^6) were collected; after washing in ice-cold PBS, samples were resuspended in 1 mL of binding buffer (10 mM HEPES, 140 mM NaCl, and 2.5 mM CaCl2, at pH 7.4) containing 10 µg/mL Annexin V-FITC and 1 µg/mL PI. After staining (1 h incubation at room temperature), cells were then washed and subsequently analysed using an FACS Calibur instrument (BD Instruments Inc., San José, CA, USA). Cells treated with 25 µM Etoposide (Eto) for 24 h were used as a positive control for apoptosis induction. Data from 10,000 events per sample were collected and analysed using an FACS Calibur instrument (BD Instruments Inc., San José, CA, USA ) equipped with cell cycle analysis software (Modfit LT for Mac V3.0) in order to calculate the percentages of apoptotic and necrotic cells.

[4] = tested on: ΔΨm in TM4 cells; assay: Mitochondrial membrane potential (ΔΨm) by JC-1 flow cytometry; format: cell-based, mouse; conditions: 3 h of incubation, JC-1, vs vCTR
Description: Variations of the ΔΨm in samples exposed to azoles for 3 h were assessed using the lipophilic cation dye JC-1, as previously reported. Cells (1 × 10^6 per sample) were stained for 30 min at 37 °C in a humidified atmosphere, with 3 µM JC-1 (Molecular Probes, Eugene, OR, USA) and collected; after washing in PBS, cells were analysed using flow cytometry. To assure a positive control for the abatement of the ΔΨm, the cells were cultured in the presence of […] rotenone (Sigma-Aldrich, St. Louis, MO, USA) for 1 h at standard conditions, and then incubated with the potentiometric dye as described above. Experiments were performed in triplicate and analysed by an FACS Calibur instrument (BD Instruments Inc., San José, CA, USA). The fluorescent signals from JC-1 monomers or aggregates were detected through the FL-1 (525 ± 5 nm) and FL-2 bandpass filters (575 ± 5 nm), respectively; the forward and side scatter channels gated a minimum of 1 × 10^4 cells on the major population of normal-sized cells. ΔΨm data assessment was performed by the Cell Quest software (BD Instruments Inc., San José, CA, USA).

[5] = tested on: ROS production in TM4 cells; assay: Intracellular ROS detection (DCFH-DA fluorescence); format: cell-based, mouse; conditions: 3 h of incubation, vs vCTR
Description: The intracellular ROS production was detected by using 2′,7′-dichlorofluorescein diacetate (DCFH-DA) (Molecular Probes, Eugene, OR, USA), as previously reported. In brief, after 30 min and 3 h of treatments, samples were incubated with 1 µM DCFH-DA at 37 °C for 30 min. Subsequently, cells were collected and twice washed in ice-cold PBS; samples were then analysed using flow cytometry to detect the presence of intracellular ROS at the wavelengths of 502 and 524 nm, for the excitation and the emission, respectively; the fluorescence intensity was detected with a Perkin Elmer LS-50B spectrofluorometer. Cells treated with 500 µM tert-butyl hydroperoxide (t-BHP) for 1.5 h were used as a positive control for ROS generation.

[6] = tested on: C-PARP1 in TM4 cells; assay: Western blot of cleaved PARP1 (C-PARP1); format: cell-based, mouse; conditions: 48 h exposure, ratio of cleaved PARP1 to total PARP1, vs vCTR
Description: The protein extracts were run on a 10% SDS-PAGE and transferred onto PVDF filters and maintained at room temperature (RT) for 2 h in 5% non-fat dry milk diluted in TBST (containing 0.1% Tween-20). After washing, membranes were incubated O/N at 4 °C with the primary antibody anti-PARP1 (Cell Signaling, Danvers, MA, USA) diluted to 1:1000 in 1% non-fat dry milk in TBST. After washing, PVDF filters were incubated for 1 h at RT with the anti-rabbit (1:5000) HRP-conjugated secondary antibody (Immunological Sciences, by Società Italiana Chimici, Rome, Italy). ECL West Pico Plus chemiluminescent substrate was used to detect signals using a ChemiDoc XRSplus imaging system (Bio-Rad Laboratories, Hercules, CA, USA). The optical densities of blot bands were quantified using ImageJ software (US National Institutes of Health, Bethesda, MD, USA); the graph values represent the ratios of cleaved PARP1 to total PARP1. ß-actin was used as loading control.

[7] = cited from earlier work; remark: listed apart in the source
[8] = tested on: antioxidant enzymes in TM4 cells; assay: Antioxidant enzymatic activity assays (SOD, CAT, GPx, GR, GST); format: cell-based, mouse
Description: The antioxidant enzymatic activities were performed spectrophotometrically, as previously described. Briefly, after 3 h of incubation with azoles, cells were washed in ice-cold PBS, resuspended in buffer containing 50 mM Tris–HCl (pH 7.4), 1% (v/v) Triton X-100, 1 mM EDTA, and then disrupted by three freeze-thawing cycles. After centrifugation (17,000 g, 10 min, 4 °C), the supernatants were collected for protein quantification and subsequently analysed.
The glutathione reductase (GR) activity was evaluated spectrophotometrically by measuring NADPH oxidation (340 nm at 25 °C). The reaction mix contained 50 mM potassium phosphate buffer (pH 7.0), 1 mM GSSG, 0.2 mM NADPH, 1 mM EDTA, and the adequate protein amount.
Total glutathione peroxidase (GPx) activity (se-dependent and se-independent) of each cell extract was assayed spectrophotometrically by following the NADPH oxidation (340 nm). The assay mixture contained 50 mM potassium phosphate buffer (pH 7.0), 1 mM GSH, 0.01 U/mL GSH reductase, 1 mM EDTA, 0.2 mM NADPH, 70 µM t-BHP, and the adequate amount of the protein extract. The glutathione transferase (GST) activity was evaluated by determining the GSH conjugation rate to 1-chloro-2,4- dinitrobenzene at 340 nm. The reaction mixture was prepared with 0.1 M potassium phosphate buffer (pH 6.5), 2 mM GSH, 1 mM 1-chloro-2,4-dinitrobenzene, and a determined amount of the supernatants.
The catalase (CAT) activity was evaluated, by monitoring at 240 nm its 10-millimolar decomposition. One unit was defined as 1 µmol of H2O2 reduced/min at 25 °C.
The superoxide dismutase (SOD) activity was determined using a colourimetric activity assay (ThermoFisher Scientific—Life Technologies Corp, Carlsband, CA, USA). The assay was conducted according to manufacturer’s instructions; briefly, it measures all types of SOD activity (including Cu/Zn, Mn, and FeSOD). Samples were resuspended in specific coloured diluent and added to a 96-well microplate. […] SOD-specific activity was expressed as U/mg protein, while the specific activity of all the other enzymes analysed was expressed as nmol/min/mg protein.

[9] = parameters: method as in PMID 42148393; conditions: cattle; cited from earlier work
[10] = tested on: GSH in TM4 cells; assay: GSH and GSSG intracellular content (colourimetric assay); format: cell-based, mouse; conditions: 3 h of incubation, vs vCTR
Description: GSH and GSSG intracellular contents were detected by using a colourimetric assay (ThermoFisher Scientific—Life Technologies Corp, Carlsband, CA, USA). The analyses were performed according to the manufacturer’s instructions after treatments with azoles at 3 h of incubation; in brief, cell lysates were prepared in ice-cold 5% 5-sulfo-salicylic acid dehydrate (Sigma-Aldrich, St. Louis, MO, USA), and subsequently resuspended in the supplied diluent before adding them into a 96-well microplate. After promptly adding substrate, the reaction with the free thiol group of GSH initiates, producing a highly coloured product. The relative absorbance was detected at 405 nm. Assays were performed at least in triplicate for the GSH and the GSSG content detection. To determine oxidised glutathione content, 2-vinylpyridine (2-VP) (Sigma-Aldrich, St. Louis, MO, USA) was added to block free GSH or other thiols contained in each sample; the specific concentration of the GSSG was determined by performing a 2-VP-treated samples standard curve.

[11] = Mus musculus, TM4 cells, 48 h of exposure, drug alone, 20% fraction of cells affected (Fa), non-linear fitting
[12] = Mus musculus, TM4 cells, 48 h of exposure, drug alone, 80% fraction of cells affected (Fa), non-linear fitting

OC(Cn1cncn1)(Cn1cncn1)c1ccc(F)cc1F [FCZ, fluconazole]
IC20 ± SE ([1]; TM4 cells, 48 h of exposure, drug alone, 20% fraction of cells affected (Fa), non-linear fitting): Not detectable
IC50 ± SE ([1]; TM4 cells, 48 h of exposure, drug alone, 50% fraction of cells affected (Fa), non-linear fitting): Not detectable
IC80 ± SE ([1]; TM4 cells, 48 h of exposure, drug alone, 80% fraction of cells affected (Fa), non-linear fitting): Not detectable
cytotoxic effects ([1]; TM4 cells, up to 320 µM, individually or in combination): no cytotoxic effects

CC(=O)N1CCN(c2ccc(OCC3COC(Cn4ccnc4)(c4ccc(Cl)cc4Cl)O3)cc2)CC1 (stereo not drawn) [KCZ, ketoconazole]
plasma concentration ([2]; human subjects, after treatment with 400 mg/day therapy): 24.89 µM
systemic absorption after topical administration ([2]; human, topical KCZ): little systemic absorption
apoptosis induction / cell death [3]: a level of apoptosis-induction occurred
mean intensity of red-orange fluorescence (MFI) of ΔΨm high population [4]: increases in MFI
IC50 ([1]; Mus musculus, TM4, 48 h, TM4 cells, 48 h of exposure, drug alone, 50% fraction of cells affected (Fa), non-linear fitting, read-out: IC50 ± SE): ~73 µM
IC20 [1, 11]: 18.3 ± 2.4 µM
IC80 [1, 12]: 293 ± 38.1 µM
IC50 ([1]; TM4 cells, 48 h of exposure, drug alone, 50% fraction of cells affected (Fa), non-linear fitting, read-out: IC50 ± SE): 73.2 ± 9.5 µM
increase in ROS production [5]: ~ 1.7 fold
C-PARP1 protein levels [6]: significantly increased

Clc1ccc(COC(Cn2ccnc2)c2ccc(Cl)cc2Cl)c(Cl)c1 (stereo not drawn) [MCZ, miconazole]
apoptosis induction / cell death [3]: a level of apoptosis-induction occurred
IC20 [1, 11]: 8.6 ± 0.6 µM
IC80 [1, 12]: 138 ± 9.8 µM
log Kow (log octanol-water partition coefficient) [7]: 6.35
increase in ROS production [5]: ~ 1.4 fold
C-PARP1 protein levels [6]: significantly increased

CC(=O)N[C@@H](CS)C(=O)O [NAC, N-acetylcysteine]
effect on KCZ- and PCZ/KCZ-induced apoptosis and necrosis ([3]; co-incubation for 48 h with 1 mM NAC): significantly reduced

CCCN(CCOc1c(Cl)cc(Cl)cc1Cl)C(=O)n1ccnc1 [PCZ, prochloraz]
apoptosis induction / cell death [3]: no significant differences; also recorded: not able to induce cell death
SOD/(GPx + CAT) ratio ([8]; 3 h of exposure, vCTR = 0.46 ± 0.067): 0.0972 ± 0.019
GST activity ([8]; 3 h of incubation, vs controls): substantially reduced
GR/(GPx + GST) ratio ([8]; 3 h of incubation, vs vCTR): positive and significant shift
residues in edible tissues (moderate bioaccumulation) [9]: ≥ 0.01 mg/kg
mean intensity of red-orange fluorescence (MFI) of ΔΨm high population [4]: increases in MFI
intracellular GSH content [10]: only a slight decrease
IC20 ([1]; Mus musculus, TM4, 48 h): 18.5 ± 3.9 µM
IC50 ([1]; Mus musculus, TM4, 48 h, read-out: IC50 ± SE, TM4 cells, 48 h of exposure, drug alone, 50% fraction of cells affected (Fa), non-linear fitting): ~73 µM
IC80 ([1]; Mus musculus, TM4, 48 h): 295 ± 62.3 µM
IC50 ([1]; read-out: IC50 ± SE, TM4 cells, 48 h of exposure, drug alone, 50% fraction of cells affected (Fa), non-linear fitting): 73.8 ± 15.6 µM
increase in ROS production [5]: ~ 1.7 fold

Reference: article PMC9140920 (International Journal of Molecular Sciences, 2022)
